Measured values from the NIST ThermoML archive (doi:10.1021/acs.jced.7b00381).

Details: Fluid (supercritical or subcritical phases), isochoric method

FC(F)(F)/C=C/C(F)(F)F [trans-1,1,1,4,4,4-hexafluoro-2-butene]
Details	mass density [kg/m3]
323.43 K, 579.7 kPa	1212.1
333.44 K, 5332.4 kPa	1210.9
333.46 K, 1305.2 kPa	1180.7
343.44 K, 10088 kPa	1209.8
343.45 K, 5602.3 kPa	1179.6
353.44 K, 1232.2 kPa	1093.7
353.44 K, 4087.2 kPa	1128.3
353.46 K, 9911.4 kPa	1178.4
363.43 K, 7766.9 kPa	1127.2
363.44 K, 4495.7 kPa	1092.6
363.45 K, 2343 kPa	1061.2
373.43 K, 1203.4 kPa	83.9
373.43 K, 1779.9 kPa	991.3
373.44 K, 7789.6 kPa	1091.5
373.46 K, 5302.7 kPa	1060.2
383.41 K, 1661.4 kPa	129.2
383.43 K, 2410.5 kPa	940.3
383.44 K, 1263 kPa	83.9
383.44 K, 4128.8 kPa	990.3
383.46 K, 8290.7 kPa	1059.2
393.42 K, 1764.3 kPa	129.1
393.44 K, 1320.8 kPa	83.8
393.44 K, 6524 kPa	989.3
393.45 K, 2531 kPa	848.7
393.45 K, 4410.6 kPa	939.4
403.43 K, 1863.4 kPa	128.9
403.43 K, 2784.5 kPa	594.5
403.43 K, 3331.6 kPa	794.2
403.44 K, 1377.2 kPa	83.7
403.44 K, 2465.8 kPa	220.8
403.44 K, 2774.4 kPa	460.7
403.44 K, 2774.7 kPa	402.7
403.44 K, 2776.5 kPa	535.5
403.44 K, 4004.8 kPa	847.9
403.44 K, 8946 kPa	988.4
403.45 K, 2727.9 kPa	325
403.45 K, 2855.7 kPa	688.4
403.45 K, 3069.1 kPa	755.5
403.45 K, 6453.8 kPa	938.5
413.42 K, 1959.4 kPa	128.8
413.42 K, 3461.5 kPa	594
413.43 K, 3371.4 kPa	535
413.43 K, 4600.2 kPa	793.4
413.43 K, 5530.3 kPa	847.1
413.44 K, 1432.9 kPa	83.6
413.44 K, 2664.9 kPa	220.6
413.44 K, 3213.6 kPa	402.3
413.44 K, 3284.4 kPa	460.2
413.44 K, 8521.8 kPa	937.6
413.45 K, 3064.7 kPa	324.7
413.45 K, 4177.9 kPa	754.8
413.46 K, 3739.9 kPa	687.7
423.42 K, 2053.6 kPa	128.7
423.42 K, 3980.8 kPa	534.4
423.42 K, 4173.8 kPa	593.4
423.43 K, 1487.5 kPa	83.5
423.43 K, 3786.7 kPa	459.8
423.43 K, 5906.9 kPa	792.7
423.44 K, 7088.7 kPa	846.2
423.45 K, 2857.2 kPa	220.3
423.45 K, 3387.7 kPa	324.4
423.45 K, 3637.3 kPa	402
423.45 K, 5329 kPa	754
423.46 K, 4672.9 kPa	687
433.42 K, 2146.1 kPa	128.6
433.42 K, 4598 kPa	533.9
433.42 K, 4900.8 kPa	592.8
433.43 K, 1541.9 kPa	83.4
433.43 K, 4284.4 kPa	459.3
433.43 K, 4286.7 kPa	459.3
433.43 K, 8666.9 kPa	845.4
433.44 K, 3703.4 kPa	324.1
433.44 K, 7237.5 kPa	791.9
433.45 K, 3045.2 kPa	220.1
433.45 K, 4055.4 kPa	401.6
433.45 K, 5628.3 kPa	686.4
433.45 K, 6506.9 kPa	753.3
443.42 K, 1595.5 kPa	83.4
443.42 K, 5218.7 kPa	533.4
443.42 K, 5638.1 kPa	592.3
443.43 K, 2237.3 kPa	128.4
443.43 K, 4783.2 kPa	458.9
443.44 K, 4469 kPa	401.2
443.44 K, 7698.7 kPa	752.6
443.44 K, 8584 kPa	791.1
443.45 K, 3230.1 kPa	219.9
443.45 K, 4013.8 kPa	323.8
443.45 K, 6600.4 kPa	685.7
453.42 K, 2327.6 kPa	128.3
453.42 K, 5843.1 kPa	532.9
453.42 K, 6380.9 kPa	591.7
453.43 K, 1648.3 kPa	83.3
453.44 K, 4319.3 kPa	323.4
453.44 K, 5280.1 kPa	458.5
453.44 K, 9941.5 kPa	790.4
453.45 K, 3412.1 kPa	219.7
453.46 K, 4880.1 kPa	400.8
453.46 K, 7584.8 kPa	685
453.46 K, 8905 kPa	751.8
463.42 K, 1700 kPa	83.2
463.42 K, 7127.1 kPa	591.1
463.44 K, 2415.5 kPa	128.2
463.44 K, 6468.5 kPa	532.4
463.45 K, 5285.9 kPa	400.4
463.45 K, 10115 kPa	751.1
463.46 K, 3590.1 kPa	219.5
463.46 K, 4621.8 kPa	323.1
463.46 K, 5775.9 kPa	458
463.47 K, 8574.6 kPa	684.4
473.43 K, 7093.2 kPa	531.9
473.43 K, 7877 kPa	590.5
473.44 K, 1751.3 kPa	83.1
473.45 K, 3766 kPa	219.3
473.45 K, 4919.9 kPa	322.8
473.45 K, 5690.2 kPa	400
473.45 K, 6269.7 kPa	457.6
473.46 K, 2503.4 kPa	128.1
473.46 K, 9568.9 kPa	683.7
483.43 K, 7718.7 kPa	531.4
483.44 K, 6093 kPa	399.6
483.44 K, 6761.7 kPa	457.1
483.44 K, 8628.9 kPa	590
483.45 K, 1803.6 kPa	83
483.45 K, 5216.5 kPa	322.5
483.46 K, 2590.8 kPa	128
483.46 K, 3941.1 kPa	219.1
493.42 K, 8344.4 kPa	530.8
493.43 K, 2677.3 kPa	127.8
493.44 K, 9378.9 kPa	589.4
493.45 K, 1854.7 kPa	83
493.46 K, 5509.7 kPa	322.2
493.46 K, 6493.6 kPa	399.3
493.46 K, 7253 kPa	456.7
493.47 K, 4117.6 kPa	218.9
503.44 K, 2763.1 kPa	127.7
503.44 K, 8968.2 kPa	530.3
503.45 K, 1906.1 kPa	82.9
503.45 K, 7742.3 kPa	456.3
503.45 K, 10130 kPa	588.8
503.46 K, 6891.7 kPa	398.9
503.47 K, 4290.5 kPa	218.7
503.47 K, 5802.6 kPa	321.9
513.42 K, 2848.4 kPa	127.6
513.42 K, 8228 kPa	455.8
513.43 K, 9591.2 kPa	529.8
513.44 K, 1956.7 kPa	82.8
513.46 K, 4460.3 kPa	218.4
513.46 K, 7287.8 kPa	398.5
513.47 K, 6092.7 kPa	321.6
523.41 K, 2933.2 kPa	127.5
523.41 K, 8713.2 kPa	455.4
523.44 K, 6379.8 kPa	321.3
523.44 K, 10213 kPa	529.3
523.45 K, 2008.3 kPa	82.7
523.45 K, 7680.8 kPa	398.1
523.46 K, 4629.7 kPa	218.2
